From patent publication US20130005696A1, “BUFADIENOLIDE DERIVATIVES, PREPARING PROCESS THEREOF, COMPOSITION COMPRISING THE SAME AND THE USE THEREOF” (priority 2011, published 2013)

Experiments:
[1] = test system: human-derived leukaemia MV-4-11 xenograft; assay: Therapeutic effect against MV-4-11 xenograft in nude mice; assay type: in vivo, Balb/c nude mice
Description: (§1) This experiment is to investigate the in vivo inhibitory effect of II1E-01.HCl on growth of human-derived hepatic carcinoma HepG2 cell, human-derived breast carcinoma MDA-MB-231 cell, human-derived lung carcinoma H460 cell, human-derived colon carcinoma HCT-116 cell, human-derived […] MV-4-11 cell xenografts in nude mice.
(§2) Formulation of solvent control (5% anhydrous ethanol & 5% aqueous glucose solution): 2.5 mL anhydrous ethanol was added into a 50 mL tube, followed by addition of 47.5 mL 5% glucose solution for injection followed by shaking, and stored at room temperature before use.
(§3) Formulation of the preparations of the compounds to be tested: formulations with concentrations of 0.4 mg/mL and 0.6 mg/mL were prepared respectively. An appropriate amount of II1E-01.HCl was weighted and put into a 50 mL tube, followed by addition of corresponding volume of solvent to get the desired concentration and mixed using a vortex mixer. After the solid was dissolved completely, the solution was subpackaged into 4 mL vials and stored at refrigerated condition (2-8° C.) until use.
(§4) Experimental animals: Balb/c nude mice (male, six weeks old).
MV-4-11 cells were in vitro cultured to be proliferated. The cells in the log phase of growth were collected and resuspended in IMDM serum-free medium, and then implanted subcutaneously into the axilla of the right forelimb of nude mice. After 37 days, the tumor size reached about 270 mm^3. The mice bearing the tumor were grouped by randomized block method according to the tumor size into 3 groups, which contain 6 mice in each group and include the group of solvent control, group of positive control (Sunitinib 40 mg/kg), and group of the testing compound II1E-01.HCl (4 mg/kg QOD). In the positive control group, sunitinib was administered intragastrically once daily (QD). In the group of II1E-01.HCl, II1E-01.HCl was administered intravenously at tail once every other day (QOD). The animals were given the drugs for 21 days, during which the growth of tumor and the body weight of the mice were observed.
After continuously administering for 21 days (the 58th day after the implantation), the tumor weight and inhibition rate were calculated, and results are listed in Table 9. […] In the group of the testing compound II1E-01.HCl (4 mg/kg QOD), the tumor also completely disappeared at 14th day after administration, and the inhibition rate was 100.00% (P<0.01) at the end of the experiment.

[2] = test system: human non-small cell lung carcinoma A549 xenograft; assay: In vivo therapeutic effect against A549 xenograft in nude mice; conditions: A549 xenograft, 5 mg/kg iv QW, after 21 days
Description: This experiment is to evaluate the in vivo therapeutic effects of compounds bufalin, II1D-06.HCl, II1E-01.HCl and II1B-02.HCl against human-derived lung carcinoma A549 cell xenograft in nude mice.
Solvent control: 4% DMSO & 2% Tween-80 & 5% PEG-400 solution in normal saline
Compounds to be tested: bufalin, II1B-02.HCl, II1E-01.HCl, II1D-06.HCl
Formulating method: the compound was dissolved with DMSO into a stock solution, which was then diluted into an injection with a final DMSO concentration of 4%.
Positive control: Rapamycin Formulating method: it was formulated into an injection with a final DMSO concentration of 4%.
After the tumor size reaches about 200 mm^3, the mice bearing the tumor were grouped randomly into 8 groups according to the tumor size, including the groups of solvent control, positive control rapamycin 5 mg/kg, II1E-01.HCl 2 mg/kg, II1E-01.HCl 4 mg/kg, II1E-01.HCl 6 mg/kg, II1B-02.HCl 4 mg/kg, II1D-06.HCl 4 mg/kg, bufalin 1.6 mg/kg, wherein the dosage selection is based on that the maximum tolerable dosage is 1.6 mg/kg for bufalin and 6 mg/kg for II1E-01.HCl. Rapamycin was administered intravenously once a week (QW) and the other groups were administered intraperitoneally once every other day (QOD). The tumor was weighted after 21 days to calculate the inhibition rate. The equation for calculating inhibition rate (IR) is IR=(WC−WT)/WC×100%, wherein, WC represents the tumor weight of the control group, and WT represents the tumor weight of the treating group.

[3] = test system: human hepatic carcinoma HepG2 xenograft; assay: Therapeutic effect against HepG2 xenograft in nude mice; assay type: in vivo, Balb/c nude mice; conditions: 10 mg/kg iv, QW × 14 d; for Inhibition Rate (%): 10 mg/kg
Description: as §1, §2, §3, §4
HepG2 cells were in vitro cultured to be proliferated. The cells in the log phase of growth were collected and resuspended in DMEM serum-free medium, and then implanted subcutaneously into the axilla of the right forelimb of nude mice. After 11 days, the tumor size reached about 250 mm^3. The mice bearing the tumor were grouped according to the tumor size into 6 groups, including the group of solvent control, groups of positive controls (Rapamycin 10 mg/kg and Vinorelbine 8 mg/kg), and groups of low (2 mg/kg), middle (4 mg/kg) and high (6 mg/kg) dosages of the testing compound II1E-01.HCl. Each group was administered intravenously at tail. In the solvent control group, the solvent control solution was administered intravenously once every other day (QOD). In the low, middle and high dosage groups of II1E-01.HCl, II1E-01.HCl was administered intravenously once every other day (QOD). In the positive control groups, Rapamycin 10 mg/kg and Vinorelbine 8 mg/kg were administered once a week (QW). The animals were given the drugs for two weeks. In the two week time period, the growth of tumor and the body weight of the mice were observed.
Two weeks after administering (the 25th day after the implantation), the tumor weight and inhibition rate were calculated, and results are listed in Table 5.

[4] = test system: HeLa human cervical carcinoma cell line; assay: In vitro antitumor activity assay (SRB), HeLa; assay type: cell-based; conditions: read-out: IC50, inhibitory activity on cell proliferation of HeLa cell line
Source text: (§5) HeLa human cervical carcinoma cell line, A-549 human non-small cell lung carcinoma cell line, NCI-H2228 human lung carcinoma cell line, NCI-H460 human lung carcinoma cell line, MDA-MB-231 human breast carcinoma cell line, MCF-7 human breast carcinoma cell line, Bel-7402 human hepatic carcinoma cell line, Hep3B human hepatic carcinoma cell line, QGY-7703 human hepatic carcinoma cell line, MV-4-11 human leukemic cell line, DAUDI human leukemic cell line, Jurkat human leukemic cell line, A498 renal carcinoma cell line, LoVo human colon carcinoma cell line, HCT1116 human colon carcinoma cell line, A431 human skin carcinoma cell line, PANC-1 human pancreatic carcinoma cell line, U87-MG human brain carcinoma cell line, SH-SY5Y human brain carcinoma cell line, RPMI-8226 human bone carcinoma cell line, HT1080 human fibrosarcoma cell line, PC-3 human prostatic carcinoma cell line, AGS human gastric adenocarcinoma cell line, and BGC-823 human gastric adenocarcinoma cell line were purchased from the Cell Bank of the Chinese Academy of Sciences.
(§6) The positive control is bufalin (formulated according to the common method), its purity is 98% or more by HPLC-UV and its structure is identified by NMR. The compounds to be tested and the positive control were diluted with normal saline with a concentration gradient of 10^−4 M, 10^−5 M, 10^−6 M, 10^−7 M and 10^−8 M.
(§7) According to cell growth rate, tumor cells in the log phase of growth were seeded into 96-well culture plates at 100 μL per well, and allowed to attach for 24 hours, followed by addition of a test compound or positive control at 10 μL per well. For each concentration, the test was carried out in triplicate wells. Solvent control wells with addition of normal saline into cell culture and a blank well containing only cell culture medium but without cells for zeroing were also included. The tumor cells were incubated for 72 hours at 37° C. under 5% CO2, and then the culture medium (RPMI-1640) was removed. The cells were fixed with 10% cool TCA by incubating for 1 h at 4° C., washed with distilled water for 5 times, and dried naturally in the air. A solution of SRB (Sigma) (4 mg/mL) in 1% glacial acetic acid was added at 100 μL per well, and the cells were stained for 15 minutes at room temperature, and the supernatant was discarded. The plates were washed for 5 times with 1% acetic acid, and dried in air. Finally, Tris solution was added at 150 μL per well, and the absorbance (A) was measured at a wavelength of 515 nm using a microplate reader. The growth inhibition on tumor cell proliferation was calculated according to the following equation:
(§8) Growth Inhibition (%)=[(Absorbance of negative control−Absorbance of blank)−(Absorbance of sample−Absorbance of blank)]/(Absorbance of negative control−Absorbance of blank)×100%
(§9) Drug concentration: 10 μM, 1 μM, 0.1 μM, 10 nM, 1 nM, 0.1 nM.
(§10) IC50 was fitted by GraphPad Prism 4.

[5] = test system: PC-3 human prostatic carcinoma cell line; assay: In vitro antitumor activity assay (SRB), PC-3; assay type: cell-based; conditions: Homo sapiens, Prostatic carcinoma cell; PC-3, Table 2; read-out: IC50, inhibition of cell proliferation, PC-3
Source text: as §5, §6, §7, §8, §9, §10

[6] = test system: MCF-7 human breast carcinoma cell line; assay: In vitro antitumor activity assay (SRB), MCF-7; assay type: cell-based; conditions: Homo sapiens, MCF7; MCF-7, Table 2; read-out: IC50, inhibition of cell proliferation, MCF-7
Source text: as §5, §6, §7, §8, §9, §10

[7] = test system: A-549 human non-small cell lung carcinoma cell line; assay: In vitro antitumor activity assay (SRB), A549; assay type: cell-based; conditions: Homo sapiens; A549, Table 2; read-out: IC50, inhibition of cell proliferation, A549
Source text: as §5, §6, §7, §8, §9, §10

[8] = test system: LoVo human colon carcinoma cell line; assay: In vitro antitumor activity assay (SRB), LoVo; assay type: cell-based; conditions: Table 2, read-out: IC50, inhibition of cell proliferation, LoVo
Source text: as §5, §6, §7, §8, §9, §10

Compound | day after administration at which the tumor completely disappeared ([1]; 40 mg/kg ig QD) [days] | Tumor Weight(g) Mean ± SE ([1]; 40 mg/kg ig, QD × 21 d) [g] | Inhibition Rate (%) ([1]; 40 mg/kg ig, QD × 21 d, 40 mg/kg) | Inhibition Rate (%) [2] [%] | Tumor Weight(g) Mean ± SE [2] [g] | Tumor Weight(g) Mean ± SE [3] [g] | Inhibition Rate (%) [3] [%] | Inhibition Rate (%) ([3]; listed as Rapamycin) | IC50 [4] [nM] | IC50 [5] [nM] | IC50 [6] [nM] | IC50 [7] [nM] | IC50 [8] [nM]
CCN(CC)CCNC(=O)c1c(C)[nH]c(/C=C2\C(=O)Nc3ccc(F)cc32)c1C [Sunitinib, reference compound] | 10 | 0.0000 ± 0.0000 | 100.00 |  |  |  |  |  |  |  |  |  | 
CO[C@H]1C[C@@H]2CC[C@@H](C)[C@@](O)(O2)C(=O)C(=O)N2CCCC[C@H]2C(=O)O[C@H]([C@H](C)C[C@@H]2CC[C@@H](O)[C@H](OC)C2)CC(=O)[C@H](C)/C=C(\C)[C@@H](O)[C@@H](OC)C(=O)[C@H](C)C[C@H](C)/C=C/C=C/C=C/1C [rapamycin, Rapamycin, reference compound] |  |  |  | 58.86 | 0.6925 ± 0.0652 | 0.4806 ± 0.0269 | 37.23 | 37.23 |  |  |  |  | 
C[C@]12CC[C@H](OC(=O)N3CCCNCC3)C[C@H]1CC[C@@H]1[C@@H]2CC[C@]2(C)[C@@H](c3ccc(=O)oc3)CC[C@]12O [II1D-06] |  |  |  |  |  |  |  |  | 0.45 | 1.25 ± 0.46 | 2.13 ± 0.29 | 0.87 ± 0.02 | 0.58 ± 0.29
C[C@]12CC[C@H](OC(=O)NCC3CCCCN3)C[C@H]1CC[C@@H]1[C@@H]2CC[C@]2(C)[C@@H](c3ccc(=O)oc3)CC[C@]12O (stereo partly drawn) [II1E-03] |  |  |  |  |  |  |  |  | 0.8 | 14.8 ± 1.12 | 31 ± 3.07 | 0.58 ± 0.17 | 23.4 ± 3.68
CN(C)CCN(C)C(=O)O[C@H]1CC[C@@]2(C)[C@H](CC[C@@H]3[C@@H]2CC[C@]2(C)[C@@H](c4ccc(=O)oc4)CC[C@]32O)C1 [II1B-03] |  |  |  |  |  |  |  |  | 1.58 | 27.3 ± 2.46 | 10.6 ± 3.04 | 2.81 ± 0.43 | 13.4 ± 3.37
CCNCCNC(=O)O[C@H]1CC[C@@]2(C)[C@H](CC[C@@H]3[C@@H]2CC[C@]2(C)[C@@H](c4ccc(=O)oc4)CC[C@]32O)C1 [II1B-05] |  |  |  |  |  |  |  |  | 1.65 | 12.6 ± 0.86 | 7.98 ± 1.9 | 2.83 ± 0.9 | 14.4 ± 0.76
CCN(CC)CCNC(=O)O[C@H]1CC[C@@]2(C)[C@H](CC[C@@H]3[C@@H]2CC[C@]2(C)[C@@H](c4ccc(=O)oc4)CC[C@]32O)C1 [II1B-02] |  |  |  |  |  |  |  |  | 3.73 | 20.1 ± 4.08 | 18.8 ± 2.68 | 0.39 ± 0.08 | 15.7 ± 1.67
